Experimental data from ChEMBL document CHEMBL1201862, “PubChem BioAssay data set” (2004).
The source made the active and inactive calls.

Key:
HeLa = assay: ATP-based viability loss in HeLa cells – cell-based, CellTiter-Glo luminescence, cherry-pick samples, cytotoxicity control for MITF activator project, dose response (AID 540259); type: functional; details: Homo sapiens
Cytochrome P450 2C9 = Cytochrome P450 2C9 (Homo sapiens, UniProt P11712)
HEK293 [1] = assay: inhibition of NOD1-driven NF-kB reporter – cell-based, luminescence, uHTS, primary screen (AID 1578); type: functional; details: Homo sapiens
BJ [2] = assay: BJ-TERT fibroblast viability loss – cell-based, RAS-independent, luminescence, dose response (AID 1933); type: functional; details: Homo sapiens
HEK293 [3] = assay: cells; type: functional, cell-based; details: Homo sapiens
BJ [4] = assay: cells; type: functional, cell-based; details: Homo sapiens
HEK293 [5] = assay: cells; type: functional, cell-based; details: Homo sapiens; remark: listed apart in the source
HEK293 [6] = assay: NOD2 signaling inhibitors in MDP-stimulated cells, cell-based, uHTS, luminescence (AID 2001); type: functional; details: Homo sapiens
BJ [7] = assay: BJ-TERT-LT-ST fibroblast viability loss – cell-based, RAS-independent, luminescence, dose response (AID 1935); type: functional; details: Homo sapiens;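 also: BJ fibroblasts immortalized with TERT plus LT and ST oncogenes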
[8] = DRD fibroblast viability loss – cell-based, non-viral oncogenic, luminescence, dose response (AID 1934); type: functional; details: Homo sapiens
[9] = biological target: T1, Replicative DNA helicase DnaB (Mycobacterium tuberculosis, UniProt P9WMR3); assay: DnaB intein splicing inhibitors, dose response, biochemical, cell-free fluorescence (AID 449749); type: functional
T1 sequence (P9WMR3 whole entry): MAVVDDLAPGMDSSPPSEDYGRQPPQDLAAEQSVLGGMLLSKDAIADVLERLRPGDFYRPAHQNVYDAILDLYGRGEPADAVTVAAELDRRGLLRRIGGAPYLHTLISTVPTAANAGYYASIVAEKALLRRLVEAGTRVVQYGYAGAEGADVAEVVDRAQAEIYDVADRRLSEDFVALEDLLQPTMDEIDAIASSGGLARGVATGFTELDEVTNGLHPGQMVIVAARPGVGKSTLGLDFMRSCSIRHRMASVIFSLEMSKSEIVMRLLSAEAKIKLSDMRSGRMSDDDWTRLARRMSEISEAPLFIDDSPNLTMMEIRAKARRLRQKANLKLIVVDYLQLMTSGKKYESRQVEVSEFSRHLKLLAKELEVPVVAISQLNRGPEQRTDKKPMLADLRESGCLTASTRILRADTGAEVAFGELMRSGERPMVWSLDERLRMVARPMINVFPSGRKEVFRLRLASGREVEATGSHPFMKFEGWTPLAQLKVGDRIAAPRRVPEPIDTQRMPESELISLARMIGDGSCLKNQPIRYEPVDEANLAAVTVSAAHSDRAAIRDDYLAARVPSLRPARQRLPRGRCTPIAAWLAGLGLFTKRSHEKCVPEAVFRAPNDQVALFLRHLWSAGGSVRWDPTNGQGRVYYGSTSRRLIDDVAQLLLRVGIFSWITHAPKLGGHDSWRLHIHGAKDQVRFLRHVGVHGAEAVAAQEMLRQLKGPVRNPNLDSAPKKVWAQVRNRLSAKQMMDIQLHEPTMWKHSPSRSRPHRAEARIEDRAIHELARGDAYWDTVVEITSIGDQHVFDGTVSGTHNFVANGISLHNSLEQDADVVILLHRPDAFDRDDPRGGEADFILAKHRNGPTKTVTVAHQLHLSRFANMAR

Protein RecA = biological target: T2, Protein RecA (Mycobacterium tuberculosis, UniProt P9WHJ3); assay: Fluorescence Cell-Free Homogeneous Dose Retest to Identify Inhibitors of RecA-Intein Splicing Activity. [Related pubchem assays (depositor defined):AID2097, AID2223, AID489010, AID492950]; type: functional
T2 sequence (P9WHJ3 whole entry): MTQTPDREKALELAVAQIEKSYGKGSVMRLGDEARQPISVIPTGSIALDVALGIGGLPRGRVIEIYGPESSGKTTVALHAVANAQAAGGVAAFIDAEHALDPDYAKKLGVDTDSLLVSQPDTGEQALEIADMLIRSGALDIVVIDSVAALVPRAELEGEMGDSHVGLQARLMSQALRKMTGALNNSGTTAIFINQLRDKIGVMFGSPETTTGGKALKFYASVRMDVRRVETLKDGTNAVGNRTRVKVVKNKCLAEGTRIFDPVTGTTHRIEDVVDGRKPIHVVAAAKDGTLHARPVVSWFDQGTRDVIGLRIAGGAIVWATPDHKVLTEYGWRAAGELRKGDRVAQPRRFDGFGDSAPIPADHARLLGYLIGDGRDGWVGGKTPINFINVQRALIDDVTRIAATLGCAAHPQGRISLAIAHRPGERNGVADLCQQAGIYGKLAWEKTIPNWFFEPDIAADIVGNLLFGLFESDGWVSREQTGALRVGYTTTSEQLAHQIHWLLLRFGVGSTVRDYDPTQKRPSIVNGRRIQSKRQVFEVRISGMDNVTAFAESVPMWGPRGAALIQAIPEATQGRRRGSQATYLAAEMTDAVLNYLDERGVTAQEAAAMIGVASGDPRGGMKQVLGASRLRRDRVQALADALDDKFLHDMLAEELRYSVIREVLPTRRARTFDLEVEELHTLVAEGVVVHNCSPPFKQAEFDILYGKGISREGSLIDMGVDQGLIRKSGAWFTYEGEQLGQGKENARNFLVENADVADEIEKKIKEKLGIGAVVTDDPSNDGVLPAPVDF

Large T antigen = Large T antigen (Simian virus 40, UniProt P03070); type: functional, Betapolyomavirus macacae;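 also: Confirmatory-stage PubChem screen for compounds that inhibit SV40 T antigen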
[10] = biological target: Luciferin 4-monooxygenase (Photinus pyralis, UniProt P08659); assay: inhibition of purified Photinus pyralis luciferase – biochemical, luminescence, dose response (AID 1891)
[11] = Luminescence Cell-Based Dose Confirmation HTS to Identify Inhibitors of Platelet Dense Granule Release. [Related pubchem assays: 1663 (Primary HTS), 1678 (Summary of Project)]; type: functional
[12] = biological target: Intestinal-type alkaline phosphatase (Mus musculus, UniProt P24822); assay: PubChem AID 488785; type: functional
[13] = biological target: T3, Alkaline phosphatase, tissue-nonspecific isozyme (Homo sapiens, UniProt P05186); assay: TNAP enzyme inhibition by screening hits, dose response, selectivity assay for mouse IAP inhibitor project, biochemical, human TNAP, uHTS hits (AID 488906); type: functional
T3 sequence (P05186 whole entry): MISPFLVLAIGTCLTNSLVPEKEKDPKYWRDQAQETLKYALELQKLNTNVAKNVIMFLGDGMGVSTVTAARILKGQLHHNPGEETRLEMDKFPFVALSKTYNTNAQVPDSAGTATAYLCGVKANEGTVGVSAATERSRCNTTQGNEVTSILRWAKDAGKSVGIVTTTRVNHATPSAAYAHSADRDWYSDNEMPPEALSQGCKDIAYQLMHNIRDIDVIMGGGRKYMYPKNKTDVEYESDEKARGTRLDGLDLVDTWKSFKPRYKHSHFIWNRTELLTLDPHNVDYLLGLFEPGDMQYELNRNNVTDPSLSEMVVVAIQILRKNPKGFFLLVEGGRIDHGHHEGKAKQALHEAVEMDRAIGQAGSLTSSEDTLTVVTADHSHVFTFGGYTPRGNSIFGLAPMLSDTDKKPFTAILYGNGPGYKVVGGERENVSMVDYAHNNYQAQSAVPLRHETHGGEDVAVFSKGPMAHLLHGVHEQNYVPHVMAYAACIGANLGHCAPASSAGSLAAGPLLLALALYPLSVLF

[14] = biological target: Intestinal-type alkaline phosphatase (Homo sapiens, UniProt P09923); assay: inhibition of human intestinal alkaline phosphatase – biochemical, dose response (AID 488876); type: functional
[15] = biological target: T4, Rac GTPase-activating protein 1 (Homo sapiens, UniProt Q9H0H5); assay: blockers of MgcRacGAP-driven Rac1 GTP hydrolysis – biochemical, ADP Hunter fluorescence, primary and confirmatory, confirmation (AID 624330); type: functional
T4 sequence (Q9H0H5 whole entry): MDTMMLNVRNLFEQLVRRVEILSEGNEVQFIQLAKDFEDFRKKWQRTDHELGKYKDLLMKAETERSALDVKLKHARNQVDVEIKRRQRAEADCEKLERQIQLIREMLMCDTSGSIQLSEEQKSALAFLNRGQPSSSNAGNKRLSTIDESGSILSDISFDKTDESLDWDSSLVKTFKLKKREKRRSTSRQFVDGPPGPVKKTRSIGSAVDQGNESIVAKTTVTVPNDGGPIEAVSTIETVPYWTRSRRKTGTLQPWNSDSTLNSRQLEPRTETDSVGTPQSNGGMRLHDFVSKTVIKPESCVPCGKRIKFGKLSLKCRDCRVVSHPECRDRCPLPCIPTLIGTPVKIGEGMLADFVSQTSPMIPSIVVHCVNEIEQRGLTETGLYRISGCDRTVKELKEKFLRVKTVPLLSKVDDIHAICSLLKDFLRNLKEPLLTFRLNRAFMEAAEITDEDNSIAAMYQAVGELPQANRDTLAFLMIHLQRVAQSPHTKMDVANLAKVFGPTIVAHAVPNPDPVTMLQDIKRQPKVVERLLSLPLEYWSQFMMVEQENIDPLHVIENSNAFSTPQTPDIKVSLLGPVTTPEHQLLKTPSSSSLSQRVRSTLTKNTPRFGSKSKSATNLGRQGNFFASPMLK

[16] = viability of uninfected HEp-2 cells – cell-based, HTS, cytotoxicity control for RSV inhibitor project, dose response (AID 2410); type: functional; details: human respiratory syncytial virus
Genome polyprotein = Genome polyprotein (dengue virus type 2, UniProt P29990); assay: flavivirus cap methylation enzyme inhibition – biochemical, confirmation dose response, primary screen (AID 588689); type: functional
[17] = HIV-1 Vif–A3G interaction blockers – biochemical, TR-FRET, GST-Vif 1-94, biotin-A3G peptide, dose response retest, primary screen (AID 1117319); type: functional;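 also: TR-FRET signal of purified GST-Vif binding a biotinylated A3G peptide; inhibitors lower the FRET signal by blocking Vif and A3G binding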

Intestinal-type alkaline phosphatase (Homo sapiens, UniProt P09923), sequence (P09923 whole entry): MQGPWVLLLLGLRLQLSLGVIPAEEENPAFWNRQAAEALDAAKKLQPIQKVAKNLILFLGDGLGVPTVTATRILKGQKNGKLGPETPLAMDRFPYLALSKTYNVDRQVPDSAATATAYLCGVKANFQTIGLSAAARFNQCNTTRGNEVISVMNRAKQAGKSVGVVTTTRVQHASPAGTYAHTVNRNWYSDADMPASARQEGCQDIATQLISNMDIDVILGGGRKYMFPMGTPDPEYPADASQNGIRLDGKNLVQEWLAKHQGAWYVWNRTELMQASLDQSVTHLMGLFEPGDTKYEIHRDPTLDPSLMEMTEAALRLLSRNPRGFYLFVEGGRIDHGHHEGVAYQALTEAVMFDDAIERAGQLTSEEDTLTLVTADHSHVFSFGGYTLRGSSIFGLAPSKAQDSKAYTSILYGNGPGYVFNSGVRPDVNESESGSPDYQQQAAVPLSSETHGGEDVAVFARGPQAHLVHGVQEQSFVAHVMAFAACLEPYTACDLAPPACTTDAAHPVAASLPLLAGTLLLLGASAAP
Intestinal-type alkaline phosphatase (Mus musculus, UniProt P24822), sequence (P24822 whole entry): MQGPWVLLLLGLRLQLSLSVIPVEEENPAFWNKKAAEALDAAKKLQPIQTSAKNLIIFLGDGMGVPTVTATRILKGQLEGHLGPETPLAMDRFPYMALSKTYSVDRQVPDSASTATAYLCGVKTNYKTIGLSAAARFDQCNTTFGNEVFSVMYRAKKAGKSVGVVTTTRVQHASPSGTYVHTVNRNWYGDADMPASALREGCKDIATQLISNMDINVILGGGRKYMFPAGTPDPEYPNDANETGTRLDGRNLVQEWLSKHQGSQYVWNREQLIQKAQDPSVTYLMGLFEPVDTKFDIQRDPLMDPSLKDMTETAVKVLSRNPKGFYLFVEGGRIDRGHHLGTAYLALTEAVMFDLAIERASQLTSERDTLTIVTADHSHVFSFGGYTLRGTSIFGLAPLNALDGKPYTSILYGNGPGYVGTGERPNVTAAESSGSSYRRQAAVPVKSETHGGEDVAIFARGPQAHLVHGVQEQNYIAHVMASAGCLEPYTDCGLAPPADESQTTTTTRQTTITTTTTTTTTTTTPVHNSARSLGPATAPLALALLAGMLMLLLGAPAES
Genome polyprotein, sequence (P29990 2492-3391 limits assumed): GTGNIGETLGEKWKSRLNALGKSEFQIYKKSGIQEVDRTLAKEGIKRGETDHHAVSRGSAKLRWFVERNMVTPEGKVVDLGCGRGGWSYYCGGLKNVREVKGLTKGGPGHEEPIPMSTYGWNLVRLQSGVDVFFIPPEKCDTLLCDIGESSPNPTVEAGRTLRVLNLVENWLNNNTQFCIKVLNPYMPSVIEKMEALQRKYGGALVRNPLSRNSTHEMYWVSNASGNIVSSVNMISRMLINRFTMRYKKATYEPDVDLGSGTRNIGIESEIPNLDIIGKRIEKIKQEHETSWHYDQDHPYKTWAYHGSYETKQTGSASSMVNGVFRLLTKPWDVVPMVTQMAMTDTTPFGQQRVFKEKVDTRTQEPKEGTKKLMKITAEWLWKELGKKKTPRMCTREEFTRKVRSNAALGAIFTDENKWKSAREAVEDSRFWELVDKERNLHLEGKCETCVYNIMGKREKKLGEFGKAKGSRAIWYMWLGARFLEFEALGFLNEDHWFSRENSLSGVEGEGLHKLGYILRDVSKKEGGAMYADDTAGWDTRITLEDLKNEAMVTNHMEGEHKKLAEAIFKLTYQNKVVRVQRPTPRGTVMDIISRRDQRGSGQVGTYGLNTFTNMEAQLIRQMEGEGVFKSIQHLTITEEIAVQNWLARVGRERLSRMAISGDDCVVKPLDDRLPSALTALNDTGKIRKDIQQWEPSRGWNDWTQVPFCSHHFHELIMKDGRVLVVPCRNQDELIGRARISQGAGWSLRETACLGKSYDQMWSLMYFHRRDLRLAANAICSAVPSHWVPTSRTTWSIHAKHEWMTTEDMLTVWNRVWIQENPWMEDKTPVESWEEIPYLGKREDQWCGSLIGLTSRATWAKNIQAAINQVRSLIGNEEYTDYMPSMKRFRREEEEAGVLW
Large T antigen, sequence (P03070 whole entry): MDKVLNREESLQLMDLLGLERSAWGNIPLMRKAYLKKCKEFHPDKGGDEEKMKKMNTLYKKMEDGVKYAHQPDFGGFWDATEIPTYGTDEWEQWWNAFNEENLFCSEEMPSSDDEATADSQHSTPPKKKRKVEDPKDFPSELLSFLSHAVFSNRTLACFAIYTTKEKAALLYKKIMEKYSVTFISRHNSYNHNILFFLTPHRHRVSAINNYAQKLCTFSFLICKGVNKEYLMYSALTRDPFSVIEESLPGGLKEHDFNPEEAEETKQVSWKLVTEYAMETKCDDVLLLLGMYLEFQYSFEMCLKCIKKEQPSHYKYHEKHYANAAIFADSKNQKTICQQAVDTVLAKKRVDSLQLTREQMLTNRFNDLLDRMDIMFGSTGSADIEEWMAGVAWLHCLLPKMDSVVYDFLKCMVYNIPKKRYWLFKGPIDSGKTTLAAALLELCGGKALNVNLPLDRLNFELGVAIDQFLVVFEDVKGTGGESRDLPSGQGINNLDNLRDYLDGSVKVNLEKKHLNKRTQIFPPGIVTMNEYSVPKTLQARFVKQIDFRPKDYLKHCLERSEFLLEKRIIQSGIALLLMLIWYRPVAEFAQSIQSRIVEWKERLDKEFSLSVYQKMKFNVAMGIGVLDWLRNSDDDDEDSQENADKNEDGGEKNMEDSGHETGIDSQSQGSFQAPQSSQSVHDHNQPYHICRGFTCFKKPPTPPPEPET
Luciferin 4-monooxygenase, sequence (P08659 whole entry): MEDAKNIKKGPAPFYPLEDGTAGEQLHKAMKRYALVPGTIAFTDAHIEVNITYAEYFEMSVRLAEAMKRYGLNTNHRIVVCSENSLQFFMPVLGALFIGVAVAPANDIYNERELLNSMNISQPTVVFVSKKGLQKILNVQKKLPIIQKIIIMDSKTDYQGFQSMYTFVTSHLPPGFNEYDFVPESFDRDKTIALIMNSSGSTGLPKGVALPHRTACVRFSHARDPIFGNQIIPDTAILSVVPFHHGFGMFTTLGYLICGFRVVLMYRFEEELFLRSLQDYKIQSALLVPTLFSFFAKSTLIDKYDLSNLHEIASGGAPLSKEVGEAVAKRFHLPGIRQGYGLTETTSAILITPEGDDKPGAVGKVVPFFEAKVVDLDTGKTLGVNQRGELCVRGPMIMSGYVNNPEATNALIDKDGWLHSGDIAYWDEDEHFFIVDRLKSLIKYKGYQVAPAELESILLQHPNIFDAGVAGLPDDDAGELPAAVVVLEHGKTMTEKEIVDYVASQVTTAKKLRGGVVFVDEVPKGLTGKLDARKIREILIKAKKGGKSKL
Cytochrome P450 2C9, sequence (P11712 whole entry): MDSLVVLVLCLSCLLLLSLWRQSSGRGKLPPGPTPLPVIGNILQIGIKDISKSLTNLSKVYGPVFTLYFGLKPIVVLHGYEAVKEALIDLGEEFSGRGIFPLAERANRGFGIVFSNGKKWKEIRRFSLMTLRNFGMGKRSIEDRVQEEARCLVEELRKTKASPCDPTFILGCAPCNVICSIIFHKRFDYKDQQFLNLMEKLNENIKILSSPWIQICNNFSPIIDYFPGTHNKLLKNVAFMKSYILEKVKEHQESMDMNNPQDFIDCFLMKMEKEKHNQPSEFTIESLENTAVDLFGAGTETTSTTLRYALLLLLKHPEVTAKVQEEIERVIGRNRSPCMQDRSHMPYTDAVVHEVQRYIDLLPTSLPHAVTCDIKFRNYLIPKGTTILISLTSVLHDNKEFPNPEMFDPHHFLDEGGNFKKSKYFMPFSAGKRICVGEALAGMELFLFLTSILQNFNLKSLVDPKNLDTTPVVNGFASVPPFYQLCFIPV

Clc1ccc(-c2nnc(CCc3ccccc3)o2)c(Cl)c1
AC50 (HeLa): 78.9 µM (active) | AC50 (Cytochrome P450 2C9): 39.8 µM (inconclusive)

O=c1oc(-c2cccs2)nc2sc3c(c12)CCCCC3
AC50 (HeLa): 47.1 µM (active)

CCc1nc(N2CCN(C(=O)CCl)CC2)c2c3c(sc2n1)CC(C)CC3 (configuration not stated)
EC50 (HEK293 [1]): > 20 µM (inactive) | EC50 (BJ [2]): 1.62 µM (active) | IC50 (HEK293 [3]): 8.57 µM (active) | EC50 (BJ [4]): 9.44 µM (inconclusive) | IC50 (HEK293 [5]): > 20 µM (inactive) | IC50 (HEK293 [6]): 12 µM (inactive) | EC50 (BJ [7]): 5.72 µM (inconclusive) | EC50 [8]: 5.84 µM (active) | AC50 [9]: 1.92 µM (active) | EC50 (Protein RecA): 0.729 µM (active)

Cc1nonc1C(=O)N/N=C/c1ccc(O)c(O)c1
IC50 (Large T antigen): 3.81 µM (active) | EC50 [10]: 4.26 µM (active) | EC50 [11]: 0.868 µM (active) | IC50 [12]: 9.92 µM (active) | IC50 [13]: 16.8 µM (active) | IC50 [14]: 14 µM (active) | IC50 [15]: 18.6 µM (active)

COc1ccc(-c2ccc3c(N)c(C(=O)NC(C)C)sc3n2)cc1OC
CC50 [16]: > 50 µM (active) | IC50 (cells): 35.9 µM (active)

Cc1ccc(OC(=O)c2cccc(S(=O)(=O)N3CCCC3)c2)c(-n2nc3ccccc3n2)c1
AC50 (HeLa): 260 µM (active)

COC(=O)N/N=C/c1ccc(-c2cccc(Cl)c2)o1
CC50 [16]: 28.3 µM (active) | IC50 (cells): 24.9 µM (active)

O=C1c2cccc(O)c2C(=O)c2c(O)cc(CO)cc21 [ALOE-EMODIN]
IC50 [12]: 2.88 µM (active) | IC50 [13]: > 100 µM (inactive) | IC50 [14]: > 100 µM (inactive)

Cc1ccc(C(c2c(O)n3c(nc2=O)SCC3)c2c(O)n3c(nc2=O)SCC3)cc1
IC50 (Genome polyprotein): 84.2 µM (active)

CCN(CC(=O)Nc1c(F)cccc1F)C(=O)CSC(=S)N1CCCC1
IC50 [17]: > 100 µM (active)

Cc1nn(-c2ccccc2)c2c1C(c1cccs1)C(C#N)=C(N)O2 (configuration not stated)
AC50 [9]: 7 µM (active) | EC50 (Protein RecA): 1.83 µM (active) | IC50 (Genome polyprotein): > 100 µM (active)

Cc1ccc(-n2nnnc2SCn2nnc3ccccc3c2=O)cc1
IC50 [17]: > 100 µM (active)

COc1ccccc1-c1cc2nc(C)cc(C)n2n1
CC50 [16]: 22.5 µM (active) | IC50 (cells): 18.8 µM (active)

C=CCn1cc(CN2CCC(C(=O)Nc3cccc(-c4cccc(Cl)c4)c3)CC2)c(C)n1
IC50 [12]: 10.3 µM (active) | IC50 [13]: 5.84 µM (active) | IC50 [14]: 14.3 µM (active)

O=S(=O)(c1ccc2c(c1)OCCO2)N1CCC(c2nc(O)c3nnn(Cc4c(F)cccc4Cl)c3n2)CC1
CC50 [16]: 34.2 µM (active) | IC50 (cells): 9.34 µM (active)

C/C(=C\C(=O)c1ccc(Br)cc1)N1CCCCC1
IC50 [17]: > 100 µM (active)
